This is an account of results in patent publication US20230257372A1 (CHONG KUN DANG PHARMACEUTICAL CORP., priority 2020, published 2023).

Structures are written as SMILES. Like-named read-outs stand apart in the source and are kept apart here.

The target of one assay is T1, human recombinant HDAC6 (Homo sapiens, UniProt Q9UBN7).
T1 construct: purchased Calbiochem Inc. 382180
T1 sequence (Q9UBN7 1-1215): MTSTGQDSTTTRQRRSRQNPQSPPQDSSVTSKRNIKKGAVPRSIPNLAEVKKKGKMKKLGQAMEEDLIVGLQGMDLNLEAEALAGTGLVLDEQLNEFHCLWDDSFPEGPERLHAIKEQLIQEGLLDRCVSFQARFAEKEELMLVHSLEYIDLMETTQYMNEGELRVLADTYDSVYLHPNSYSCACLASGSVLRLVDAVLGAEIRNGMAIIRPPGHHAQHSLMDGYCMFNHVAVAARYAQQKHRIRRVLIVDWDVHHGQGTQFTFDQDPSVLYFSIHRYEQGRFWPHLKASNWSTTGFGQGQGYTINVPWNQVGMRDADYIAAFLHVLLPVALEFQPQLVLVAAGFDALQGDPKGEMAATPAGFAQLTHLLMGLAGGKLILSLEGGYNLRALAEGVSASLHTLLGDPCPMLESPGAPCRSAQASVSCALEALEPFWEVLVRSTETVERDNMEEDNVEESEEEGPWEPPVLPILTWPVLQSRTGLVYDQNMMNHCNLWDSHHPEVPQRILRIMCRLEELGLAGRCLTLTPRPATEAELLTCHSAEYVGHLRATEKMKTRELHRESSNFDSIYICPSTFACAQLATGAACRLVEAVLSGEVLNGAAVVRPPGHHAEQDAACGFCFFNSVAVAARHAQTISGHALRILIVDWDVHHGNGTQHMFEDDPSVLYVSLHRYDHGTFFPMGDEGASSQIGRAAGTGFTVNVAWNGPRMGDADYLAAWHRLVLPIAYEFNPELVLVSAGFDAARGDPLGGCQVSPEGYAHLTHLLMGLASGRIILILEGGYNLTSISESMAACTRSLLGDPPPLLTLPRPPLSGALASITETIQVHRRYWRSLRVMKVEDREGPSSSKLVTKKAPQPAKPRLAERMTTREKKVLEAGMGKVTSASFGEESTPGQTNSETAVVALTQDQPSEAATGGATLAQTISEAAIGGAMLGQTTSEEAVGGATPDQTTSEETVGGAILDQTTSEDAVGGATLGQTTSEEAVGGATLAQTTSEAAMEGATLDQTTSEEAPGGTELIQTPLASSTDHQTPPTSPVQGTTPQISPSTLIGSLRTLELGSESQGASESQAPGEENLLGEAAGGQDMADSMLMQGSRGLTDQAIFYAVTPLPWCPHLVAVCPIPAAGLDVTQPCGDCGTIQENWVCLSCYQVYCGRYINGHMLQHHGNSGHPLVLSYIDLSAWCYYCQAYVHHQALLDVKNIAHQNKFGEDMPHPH
Kind of assay: HDAC6 enzyme activity inhibition (HDAC Fluorimetric Drug Discovery Kit). Type of assay: biochemical. Put shortly: (§1)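 Each isoform is run in the same format: compound dilutions (5-fold steps), 10 μM substrate, […] enzyme, one hour at 30° C, then 30 minutes with developer before fluorescence readout.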

The next assay addresses T2, human recombinant HDAC1 (Homo sapiens, UniProt Q13547).
T2 construct: purchased Enzo Life Science, Inc. BML-SE456
Description: HDAC1 enzyme activity inhibition (HDAC Fluorimetric Drug Discovery Kit). Type of assay: biochemical. The following applies: read-out: HDAC1. Put shortly:
as §1

Where [1] appears, read: human recombinant HDAC6, IC50 calculated with GraphPad Prism.
Where [2] appears, read: human recombinant HDAC1, IC50 calculated with GraphPad Prism.
Where [3] appears, read: human recombinant HDAC6, same protocol as HDAC1.
[4] abbreviates: human recombinant HDAC1, Fluor de Lys substrate, 30° C. 60 minutes.

T2 sequence (Q13547 whole entry): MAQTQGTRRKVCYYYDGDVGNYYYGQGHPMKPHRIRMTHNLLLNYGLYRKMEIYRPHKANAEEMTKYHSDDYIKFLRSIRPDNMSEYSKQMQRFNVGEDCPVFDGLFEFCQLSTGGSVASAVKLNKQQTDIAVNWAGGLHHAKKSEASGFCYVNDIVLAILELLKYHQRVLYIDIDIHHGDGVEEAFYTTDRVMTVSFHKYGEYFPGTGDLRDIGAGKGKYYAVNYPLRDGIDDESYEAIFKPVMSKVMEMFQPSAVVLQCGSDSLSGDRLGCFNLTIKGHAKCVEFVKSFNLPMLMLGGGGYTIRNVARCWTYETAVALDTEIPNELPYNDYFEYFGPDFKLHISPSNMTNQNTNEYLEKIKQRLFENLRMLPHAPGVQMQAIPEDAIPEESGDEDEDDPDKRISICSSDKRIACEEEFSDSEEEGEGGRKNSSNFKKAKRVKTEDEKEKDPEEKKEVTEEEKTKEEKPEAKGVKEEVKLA

`CC(C)N1CCN(Cc2cccc(-c3cn(Cc4ccc(-c5nnc(C(F)F)o5)cc4)nn3)c2)CC1` [Compound 4416, 2-(difluoromethyl)-5-(4-((4-(3-((4-isopropylpiperazin-1-yl)methyl)phenyl)-1H-1,2,3-triazol-1-yl)methyl)phenyl)-1,3,4-oxadiazole]: on human recombinant HDAC6 (HDAC1 IC50 / HDAC6 IC50), the “HDAC6 selectivity (fold)” value worked out at 427 fold. Further, the IC50 at human recombinant HDAC6 (setting [1]) is 112 nM; on human recombinant HDAC1 (setting [2]), above 50 µM.

On to `Fc1c(-c2cn(Cc3ccc(-c4nnc(C(F)F)o4)cn3)nn2)cccc1N1CCN(CC2CC(F)(F)C2)CC1` [Compound 4601, 2-(6-((4-(3-(4-((3,3-difluorocyclobutyl)methyl)piperazin-1-yl)-2-fluorophenyl)-1H-1,2,3-triazol-1-yl)methyl)pyridin-3-yl)-5-(difluoromethyl)-1,3,4-oxadiazole], for which the “HDAC6 selectivity (fold)” value on human recombinant HDAC6 (HDAC6 over HDAC1) came to 1392 fold. The IC50 on human recombinant HDAC6 (setting [3]) is 35.9 nM; at human recombinant HDAC1 (setting [4]) it was above 50 µM.

With `FC(F)c1nnc(-c2ccc(Cn3cc(-c4ccccc4)nn3)cc2)o1` [Compound 3657, 2-(difluoromethyl)-5-(4-((4-phenyl-1H-1,2,3-triazol-1-yl)methyl)phenyl)-1,3,4-oxadiazole], the “HDAC6 selectivity (fold)” value at human recombinant HDAC6 (HDAC1 IC50 / HDAC6 IC50) is recorded as 527 fold. Besides, the IC50 is 94.8 nM at human recombinant HDAC6 (setting [1]) and above 50 µM on human recombinant HDAC1 (setting [2]).

On to `OCc1ccc(-c2cn(Cc3ccc(-c4nnc(C(F)F)o4)cc3F)nn2)cc1` [Compound 4476, (4-(1-(4-(5-(difluoromethyl)-1,3,4-oxadiazol-2-yl)-2-fluorobenzyl)-1H-1,2,3-triazol-4-yl)phenyl)methanol], for which the “HDAC6 selectivity (fold)” value on human recombinant HDAC6 (HDAC1 IC50 / HDAC6 IC50) is on record as 1022 fold. The IC50 is 48.9 nM at human recombinant HDAC6 (setting [1]) and above 50 µM on human recombinant HDAC1 (setting [2]).

For the compound `O=C(Nc1cccc(-c2cn(Cc3ccc(-c4nnc(C(F)F)o4)cn3)nn2)c1)C1CNC1` [Compound 4463, N-(3-(1-((5-(5-(difluoromethyl)-1,3,4-oxadiazol-2-yl)pyridin-2-yl)methyl)-1H-1,2,3-triazol-4-yl)phenyl)azetidin-3-carboxamide], the “HDAC6 selectivity (fold)” value on human recombinant HDAC6 (HDAC1 IC50 / HDAC6 IC50) is listed as 1046 fold. The IC50 at human recombinant HDAC6 (setting [1]) is 47.8 nM; at human recombinant HDAC1 (setting [2]), above 50 µM.

Regarding `Fc1cc(-c2nnc(C(F)F)o2)ccc1Cn1cc(-c2ccc(CN3CCCCC3)cc2)nn1` [Compound 4610, 2-(difluoromethyl)-5-(3-fluoro-4-((4-(4-(piperidin-1-ylmethyl)phenyl)-1H-1,2,3-triazol-1-yl)methyl)phenyl)-1,3,4-oxadiazole], the “HDAC6 selectivity (fold)” value on human recombinant HDAC6 (HDAC6 over HDAC1) is listed as 3496 fold. Further, the results for the IC50 at human recombinant HDAC6 (setting [3]) and on human recombinant HDAC1 (setting [4]) were 14.3 nM and above 50 µM, respectively.

As to `FC(F)c1nnc(-c2ccc(Cn3cc(-c4ccc5cn[nH]c5c4)nn3)nc2)o1` [Compound 4340, 2-(6-((4-(1H-indazol-6-yl)-1H-1,2,3-triazol-1-yl)methyl)pyridin-3-yl)-5-(difluoromethyl)-1,3,4-oxadiazole], at human recombinant HDAC6 (HDAC1 IC50 / HDAC6 IC50), the “HDAC6 selectivity (fold)” value was 7575 fold. Moreover, the IC50 on human recombinant HDAC6 (setting [1]) was 6.6 nM; at human recombinant HDAC1 (setting [2]) it was above 50 µM.

In the case of `Fc1cc(-c2nnc(C(F)F)o2)cnc1Cn1cc(-c2ccc3c(c2)CN(C2CCC2)CC3)nn1` [Compound 19004], the “HDAC6 selectivity (fold)” value at human recombinant HDAC6 (HDAC6 over HDAC1) is listed as 640 fold. In addition, the results for the IC50 on human recombinant HDAC6 (setting [3]) and on human recombinant HDAC1 (setting [4]) were 78.1 nM and above 50 µM, respectively.

For the compound `Fc1cc(-c2nnc(C(F)F)o2)cnc1Cn1cc(-c2cccc(C3CCN(C4CCC4)CC3)c2)nn1` [Compound 18870, 2-(6-((4-(3-(1-cyclobutylpiperidin-4-yl)phenyl)-1H-1,2,3-triazol-1-yl)methyl)-5-fluoropyridin-3-yl)-5-(difluoromethyl)-1,3,4-oxadiazole], the “HDAC6 selectivity (fold)” value at human recombinant HDAC6 (HDAC6 over HDAC1) turned out to be 1123 fold. Further, the IC50 at human recombinant HDAC6 (setting [3]) is 44.5 nM; at human recombinant HDAC1 (setting [4]), above 50 µM.

As to `CN(C(=O)C(C)(C)C)c1cccc(-c2cn(Cc3ccc(-c4nnc(C(F)F)o4)cn3)nn2)c1` [Compound 3889, N-(3-(1-((5-(5-(difluoromethyl)-1,3,4-oxadiazol-2-yl)pyridin-2-yl)methyl)-1H-1,2,3-triazol-4-yl)phenyl)-N-methylpivalamide], the “HDAC6 selectivity (fold)” value at human recombinant HDAC6 (HDAC1 IC50 / HDAC6 IC50) came out at 1210 fold. The IC50 at human recombinant HDAC6 (setting [1]) was 41.3 nM; on human recombinant HDAC1 (setting [2]), above 50 µM.

Take `CCCN1CCN(c2cccc(-c3cn(Cc4ccc(-c5nnc(C(F)F)o5)cc4F)nn3)c2)CC1` [Compound 4374, 2-(difluoromethyl)-5-(3-fluoro-4-((4-(3-(4-propylpiperazin-1-yl)phenyl)-1H-1,2,3-triazol-1-yl)methyl)phenyl)-1,3,4-oxadiazole]: the “HDAC6 selectivity (fold)” value on human recombinant HDAC6 (HDAC1 IC50 / HDAC6 IC50) worked out at 228 fold. For the same compound, the IC50 was 21.9 nM at human recombinant HDAC6 (setting [1]) and above 50 µM at human recombinant HDAC1 (setting [2]).

With `CCN1CCN(Cc2ccc(-c3cn(Cc4ccc(-c5nnc(C(F)F)o5)cn4)nn3)cc2)CC1` [Compound 4563, 2-(difluoromethyl)-5-(6-((4-(4-((4-ethylpiperazin-1-yl)methyl)phenyl)-1H-1,2,3-triazol-1-yl)methyl)pyridin-3-yl)-1,3,4-oxadiazole], the “HDAC6 selectivity (fold)” value at human recombinant HDAC6 (HDAC6 over HDAC1) was 2222 fold. Besides, the figures for the IC50 at human recombinant HDAC6 (setting [3]) and on human recombinant HDAC1 (setting [4]) were 22.5 nM and above 50 µM, respectively.

Take `FC(F)c1nnc(-c2ccc(Cn3cc(-c4cc(C(F)(F)F)cc(C(F)(F)F)c4)nn3)cc2)o1` [Compound 3695, 2-(4-((4-(3,5-bis(trifluoromethyl)phenyl)-1H-1,2,3-triazol-1-yl)methyl)phenyl)-5-(difluoromethyl)-1,3,4-oxadiazole]: the “HDAC6 selectivity (fold)” value at human recombinant HDAC6 (HDAC1 IC50 / HDAC6 IC50) amounted to 42 fold. Moreover, the IC50 is 1190 nM on human recombinant HDAC6 (setting [1]) and above 50 µM on human recombinant HDAC1 (setting [2]).

Regarding `FC(F)c1nnc(-c2ccc(Cn3cc(C4=CCCCC4)nn3)nc2)o1` [Compound 3879, 2-(6-((4-(cyclohex-1-ene-1-yl)-1H-1,2,3-triazol-1-yl)methyl)pyridin-3-yl)-5-(difluoromethyl)-1,3,4-oxadiazole], on human recombinant HDAC6 (HDAC1 IC50 / HDAC6 IC50), the “HDAC6 selectivity (fold)” value amounted to 773 fold. Further, the IC50 at human recombinant HDAC6 (setting [1]) was 64.6 nM; at human recombinant HDAC1 (setting [2]) it was above 50 µM.

With `CCN1CCN(C(=O)c2cccc(-c3cn(Cc4ccc(-c5nnc(C(F)F)o5)cn4)nn3)c2)CC1` [Compound 4482, (3-(1-((5-(5-(difluoromethyl)-1,3,4-oxadiazol-2-yl)pyridin-2-yl)methyl)-1H-1,2,3-triazol-4-yl)phenyl)(4-ethylpiperazin-1-yl)methanone], the “HDAC6 selectivity (fold)” value on human recombinant HDAC6 (HDAC1 IC50 / HDAC6 IC50) came out at 943 fold. Moreover, the values for the IC50 at human recombinant HDAC6 (setting [1]) and on human recombinant HDAC1 (setting [2]) were 53 nM and above 50 µM, respectively.

On to `Fc1cccnc1-c1cn(Cc2ccc(-c3nnc(C(F)F)o3)cn2)nn1` [Compound 4178], for which the “HDAC6 selectivity (fold)” value at human recombinant HDAC6 (HDAC1 IC50 / HDAC6 IC50) came to 896 fold. In addition, the IC50 at human recombinant HDAC6 (setting [1]) is 55.8 nM; on human recombinant HDAC1 (setting [2]), above 50 µM.

For the compound `OC1(c2cn(Cc3ccc(-c4nnc(C(F)F)o4)cc3F)nn2)CCOC1` (stereo not drawn) [Compound 4279, 3-(1-(4-(5-(difluoromethyl)-1,3,4-oxadiazol-2-yl)-2-fluorobenzyl)-1H-1,2,3-triazol-4-yl)tetrahydrofuran-3-ol], the “HDAC6 selectivity (fold)” value at human recombinant HDAC6 (HDAC1 IC50 / HDAC6 IC50) was 182 fold. In addition, the values for the IC50 at human recombinant HDAC6 (setting [1]) and at human recombinant HDAC1 (setting [2]) were 274 nM and above 50 µM, respectively.

Take `CN(C)CC(=O)Nc1cccc(-c2cn(Cc3ccc(-c4nnc(C(F)F)o4)cc3F)nn2)c1` [Compound 4352, N-(3-(1-(4-(5-(difluoromethyl)-1,3,4-oxadiazol-2-yl)-2-fluorobenzyl)-1H-1,2,3-triazol-4-yl)phenyl)-2-(dimethylamino)acetamide]: the “HDAC6 selectivity (fold)” value on human recombinant HDAC6 (HDAC1 IC50 / HDAC6 IC50) was determined as 1562 fold. For the same compound, the IC50 at human recombinant HDAC6 (setting [1]) was 33.2 nM; on human recombinant HDAC1 (setting [2]), above 50 µM.

For `Fc1cc(-c2nnc(C(F)F)o2)ccc1Cn1cc(-c2ccc(CN3CC[C@@H](F)C3)cn2)nn1` [Compound 18260, (R)-2-(difluoromethyl)-5-(3-fluoro-4-((4-(5-((3-fluoropyrrolidin-1-yl)methyl)pyridin-2-yl)-1H-1,2,3-triazol-1-yl)methyl)phenyl)-1,3,4-oxadiazole], the “HDAC6 selectivity (fold)” value at human recombinant HDAC6 (HDAC6 over HDAC1) amounted to 775 fold. Further, the IC50 on human recombinant HDAC6 (setting [3]) was 64.5 nM; at human recombinant HDAC1 (setting [4]), above 50 µM.
